The test system of data set [1] is HCT116 tumour line (ref. ATCC-CCL247). Kind of data set: MTS proliferation and cell viability test on the HCT116 tumour line. In kind it is cell-based. To be noted: Homo sapiens, HCT-116, incubation of the tested compound for 72 h, 50% loss of proliferation and of cell viability. How it is done:
The proliferation and the cell viability were determined in a test using 3-(4,5-dimethylthiazol-2-yl)-5-(3-carboxymethoxyphenyl)-2-(4-sulfophenyl)-2H-tetrazolium (MTS) according to Fujishita T. et al. Oncology 2003, 64(4), 399-406 (see page 401). In this test, the mitochondrial capacity of the living cells for converting the MTS into a coloured compound, after incubation of the tested compound for 72 h, is measured. IC50 (nM) denotes the concentration of compound which results in a 50% loss of proliferation and of cell viability.
The compounds of Table I were the subject of in vitro experimental tests on the HCT116 tumour line (ref. ATCC-CCL247).

What is called IC50 is the concentration that gives 50% inhibition. In the case of `CCn1c(N)c(C(=O)NC)c(=O)c2ccc(-c3ccc(NC(=O)NCc4cccnc4)cc3)nc21` [No. 1, 2-Amino-1-ethyl-4-oxo-7-[4-(3-pyridin-3-ylmethylureido)phenyl]-1,4-dihydro[1,8]naphthyridine-3-carboxylic acid methylamide], in data set [1], the concentration for half-maximal inhibition (IC50) is 0.2 to 0.5 nM.
Same read-out and setting: to `CCn1c(N)c(C(=O)NC)c(=O)c2ccc(-c3ccc(NC(=O)/C=C/c4cccnc4)cc3)nc21` [No. 7, 2-Amino-1-ethyl-4-oxo-7-[4-((E)-3-pyridin-3-yl-acryloylamino)phenyl]-1,4-dihydro[1,8]naphthyridine-3-carboxylic acid methylamide] belongs 2 nM.
On the same count and under the same terms, to `CCOC(=O)c1c(N)n(CC)c2nc(-c3ccc(NC(=O)NCc4cccnc4)cc3)ccc2c1=O` [No. 10, 2-Amino-1-ethyl-4-oxo-7-[4-(3-pyridin-3-ylmethylureido)phenyl]-1,4-dihydro[1,8]naphthyridine-3-carboxylic acid ethyl ester] belongs < 1 nM; to `CCn1c(N)c(C(=O)O)c(=O)c2ccc(-c3ccc(NC(=O)NCc4cccnc4)cc3)nc21` [No. 13, 2-Amino-1-ethyl-4-oxo-7-[4-(3-pyridin-3-ylmethylureido)phenyl]-1,4-dihydro[1,8]naphthyridine-3-carboxylic acid], 6 nM.
Same read-out and setting: to `CCn1c(N)c(C(=O)NC)c(=O)c2ccc(-c3ccc(NC(=O)NCc4cccnc4)cc3)cc21` [No. 27, 2-Amino-1-ethyl-4-oxo-7-[4-(3-pyridin-3-ylmethylureido)phenyl]-1,4-dihydroquinoline-3-carboxylic acid methylamide] belongs 0.1 nM.
A word on the melting point: it is the temperature of the solid-liquid transition. `CCn1c(N)c(C(=O)NCCN2CCOCC2)c(=O)c2ccc(-c3ccc(NC(=O)NCc4cccnc4)cc3)nc21` [No. 30, 2-Amino-1-ethyl-4-oxo-7-[4-(3-pyridin-3-ylmethylureido)phenyl]-1,4-dihydro[1,8]naphthyridine-3-carboxylic acid (2-morpholin-4-ylethyl)amide] gave a melting point of 245 °C. The same compound gave an IC50 in data set [1] of 0.1 nM.
Consider `CCn1c(NCCN2CCN(C)CC2)c(C(=O)NCCN2CCN(C)CC2)c(=O)c2ccc(-c3ccc(NC(=O)NCc4cccnc4)cc3)nc21` [No. 46, 1-Ethyl-2-[2-(4-methyl-piperazin-1-yl)-ethylamino]-4-oxo-7-[4-(3-pyridin-3-ylmethylureido)phenyl]-1,4-dihydro[1,8]naphthyridine-3-carboxylic acid [2-(4-methylpiperazin-1-yl)ethyl]amide], for which, in data set [1], 1.9 nM corresponded to half-maximal inhibition (IC50).
Same read-out and setting: to `CCn1c(N)c(C(=O)NC)c(=O)c2cnc(-c3ccc(NC(=O)NCc4cccnc4)cc3)nc21` [No. 53, 7-Amino-8-ethyl-5-oxo-2-[4-(3-pyridin-3-ylmethylureido)phenyl]-5,8-dihydro-pyrido[2,3-d]pyrimidine-6-carboxylic acid methylamide] belongs 6 nM; to `CCn1c(N)c(C(N)=O)c(=O)c2ccc(-c3ccc(NC(=O)NCc4cccnc4)cc3)cc21` [No. 56, 2-Amino-1-ethyl-4-oxo-7-[4-(3-pyridin-3-ylmethylureido)phenyl]-1,4-dihydroquinoline-3-carboxylic acid amide], 0.19 nM; to `CCn1c(NCCN2CCCC2C)c(C(=O)NCCN2CCCC2C)c(=O)c2ccc(-c3ccc(NC(=O)NCc4cccnc4)cc3)nc21` (centres unmarked) [No. 57, 1-Ethyl-2-[2-(2-methyl-pyrrolidin-1-yl)-ethylamino]-4-oxo-7-[4-(3-pyridin-3-ylmethylureido)phenyl]-1,4-dihydro[1,8]naphthyridine-3-carboxylic acid [2-(2-methylpyrrolidin-1-yl)ethyl]amide], 0.26 nM.
On the same count and under the same terms, the result for `CCn1c(NCC2CCCO2)c(C(=O)NCC2CCCO2)c(=O)c2ccc(-c3ccc(NC(=O)NCc4cccnc4)cc3)cc21` (centres unmarked) [No. 59, 1-Ethyl-4-oxo-7-[4-(3-pyridin-3-ylmethylureido)phenyl]-2-[(tetrahydrofuran-2-ylmethyl)amino]-1,4-dihydroquinoline-3-carboxylic acid (tetrahydrofuran-2-ylmethyl)amide] reads 0.47 nM; that for `CCn1c(NCCN(C(C)C)C(C)C)c(C(=O)NCCN(C(C)C)C(C)C)c(=O)c2ccc(-c3ccc(NC(=O)NCc4cccnc4)cc3)cc21` [No. 60, 2-(2-Diisopropylaminoethylamino)-1-ethyl-4-oxo-7-[4-(3-pyridin-3-ylmethylureido)phenyl]-1,4-dihydroquinoline-3-carboxylic acid (2-diisopropylaminoethyl)amide], 0.1 nM.
On the same count and under the same terms, to `CCn1c(NCCN2CCCC2)c(C(=O)NCCN2CCCC2)c(=O)c2ccc(-c3ccc(NC(=O)NCc4cccnc4)cc3)cc21` [No. 61, 1-Ethyl-4-oxo-7-[4-(3-pyridin-3-ylmethylureido)phenyl]-2-(2-pyrrolidin-1-ylethylamino)-1,4-dihydroquinoline-3-carboxylic acid (2-pyrrolidin-1-ylethyl)amide] belongs 0.1 nM.

(Values after patent US20110251194A1, “ANTINEOPLASTIC DERIVATIVES, PREPARATION THEREOF AND THERAPEUTIC USE THEREOF” (SANOFI-AVENTIS, priority 2008, published 2011).)
